This note sets out measurements from patent US6958334B2, “Inhibitors of Akt activity” (Merck & Co., Inc., priority 2001, dated 2005).

The IC50 is the concentration needed to halve the response being measured.

The test system of the experiment is PKC (mix of isoforms). The experiment can be described thus: PKC assay (counter screen). Format: biochemical. To be noted: myelin basic protein substrate; read-out: Counter screens IC50 (μM) PKC. How it is done:
Each PKC assay consists of the following components:
Final assay concentrations were as follows: 0.25 mM EGTA, 0.4 mM CaCl, 20 mM Tris pH 7.5, 10 mM MgCl, 1 mM 2-mercaptoethanol, 0.32 mg/ml phosphatidylserine, 0.032 mg/ml diacylglycerol, 10 μM ^33P-ATP, 70 μg/ml MBP, 10 ng/ml PKC, 0.1 mg/ml BSA.
Assays are performed using 96 deep well assay plates. In each assay well 10 μl of solvent control or appropriate inhibitor dilution with 5 μl ^33P-ATP (components #5 and #3) were premixed. In a separate tube, a mixture containing equal volumes of components #1, #2, #4, and #6 was prepared. The assay reaction was initiated, by adding 35 μl of the components #1, #2, #4, and #6 mixture to wells containing ^33P-ATP and inhibitor. The liquid in the assay wells was thoroughly mixed and the assay reactions incubated for 20 minutes at room temperature. The reactions were stopped by adding 100 mM EDTA (50 μl) and 100 mM sodium pyrophosphate (50 μl) and mixing. Phosphorylated MBP was collected on PVDF membranes in 96 well filter plates and quantitated by scintillation counting.
Background: A counterscreen serves to expose hits that act by an unwanted route or on another target.

`CN(C)CC(C)(C)CNc1nn2c(-c3ccccc3)nnc2c2ccccc12` [Compound 1, 2,2,N,N-tetramethyl-N-(3-phenyl-[1,2,4]triazolo[3,4-α]phthalazin-6-yl)-propane-1,3-diamine]: the IC50 was more than 40 µM.
On to `COc1ccc(-c2nnc3c4ccccc4c(NCC(C)(C)CN(C)C)nn23)cc1` [Compound 2, N′-[3-(4-Methoxy-phenyl)-[1,2,4]triazolo[4,3-α]phthalazin-6-yl)-2,2,N,N-tetramethyl-propane-1,3-diamine], for which the IC50 was more than 40 µM.
